Experimental data published in patent US11445912B2, “Robust myocardial blood oxygen level dependent magnetic resonance imaging with long acting coronary vasodilators” (Cedars-Sinai Medical Center, priority 2015, dated 2022).
Like-named read-outs stand apart in the source and are kept apart here.

How the values were obtained:
[1] = cited from earlier work; for terminal half-life: extended vasodilatory state
[2] = test system: infarcted dogs; test: 13N-NH3 PET myocardial perfusion reserve, remote vs affected zones (Example 3); assay type: in vivo
Experimental: (§1) Intact (n=7) and infarcted (n=2) dogs were studied in a hybrid PET/MR system. 2D BOLD (T2 maps), LGE and ^13N—NH3 PET images were acquired at rest and at post-regadenoson administration (p.r.a.). T2 maps post-regadenoson administration (p.r.a.) were repeatedly acquired over 30 mins and were registered to T2 maps at rest. These time-dependent T2 maps were then used to model the coronary relaxation as T2(t)=T2o+ΔT2max exp(−t/τ), where T2o, ΔT2max and τ are fit parameters with T2o=T2 at rest; ΔT2max=maximal T2 change from rest; and τ=time constant of coronary relaxation. Maximum BOLD response from CRM was estimated (MBRCRM=ΔT2max/T2o×100%) and compared to conventional myocardial BOLD response [MBRcon=(T2^2min−Rest T2)/Rest T2×100%, where T2^2min=myocardial T2 at 2 min p.r.a and Rest T2=T2 prior to regadenoson injection] using a regression model. In infarcted dogs, affected zones were identified using Late Gadolinium Enhancement (LGE). BOLD contrast-to-noise ratio (CNR) between remote and affected zones (CNR=(μMBRRemote−μMBRAffected)/σMBRRemote, where μ and σ are the mean and std dev) were estimated for MBRCRM and MBRcon and compared. MBRs were validated with perfusion reserve from PET myocardial perfusion reserve (MPR).

[3] = test system: intact dogs; test: Repeated BOLD CMR with coronary relaxation model (Example 3); assay type: in vivo
Experimental: as §1

[4] = test system: infarcted dogs; test: Repeated BOLD CMR with coronary relaxation model, remote vs affected zones (Example 3); assay type: in vivo
Experimental: as §1

[5] = test system: Canines; test: 13N-ammonia PET myocardial blood flow at rest and post regadenoson, PET/MR (Example 1); assay type: in vivo
Experimental: (§2) Canines (n=7) were studied in a PET/MR system. MR acquisitions were used to generate short-axis 2D T2 maps; and the PET acquisitions following ^[…]-ammonia infusion were used to quantify myocardial blood flow (MBF). Initially, 2D T2 maps and PET signals were acquired at rest. Subsequently, regadenoson (2.5 μg/kg) was administrated. T2 maps were acquired at 2- and 10-mins p.r.a and PET signals were acquired at 10-mins p.r.a. Standard deviation (a) of myocardial T2 values was measured at rest, 2- and 10-mins p.r.a from T2 maps and were used to determine Myocardial BOLD Variability (MBV, defined as σT2(stress)/σT2(rest)) at 2- and 10-min p.r.a. Similarly, using the mean T2 values, Myocardial BOLD Response (MBR, defined as T2(stress)/T2(rest)) was computed at 10-mins p.r.a. PET images were analyzed with qPET software to determine MBF and MPR at rest and 10-mins p.r.a and were regressed against MBR.

[6] = test system: dog with chronic infarction; test: 13N ammonia PET myocardial perfusion reserve in infarcted animal (Example 2); assay type: in vivo; settings: PET at 2 minutes post regadenoson
Experimental: Image acquisition: Human studies were performed on a 3.0 T clinical MM system (MAGNETOM Verio®, Siemens Healthcare, Erlangen, Germany) and the animals were studied on a 3T whole body PET MR system (Biograph mMR, Siemens Healthcare, Erlangen, Germany). In all subjects, BOLD images were acquired with a commercially available 2D T2 mapping sequence {Giri, 2009 #820}. In all studies, after localization and shimming, rest BOLD images were acquired under baseline followed by a bolus regadenoson injection. Post regadenoson administration, BOLD CMR images were acquired between 2 to 30 minutes after regadenoson injection with an interval of 1-5 minutes depending on the physiological and imaging condition. In the animal with chronic infarction, simultaneous ^13N ammonia PET images were acquired at 2 minutes post regadenoson administration to validate the hyperemic response from regadenoson. In addition, LGE images were acquired to identify the infarcted territories after all BOLD acquisitions were completed. Block representations of imaging protocols are illustrated in FIG. 5. […]
In addition, simultaneously acquired quantitative PET images were used to derive myocardial perfusion reserve (MPR) with a clinical validated software (QPET, Cedars-Sinai Medical Center, Los Angeles) and to validate the reduced MPR in the infarcted myocardium.

[7] = test system: intact dogs; test: 13N-NH3 PET myocardial perfusion reserve (Example 3); assay type: in vivo; settings: p.r.a
Experimental: as §1

[8] = test system: Canines; test: Myocardial BOLD CMR, 2D T2 maps post regadenoson (Example 1); assay type: in vivo
Experimental: as §2

[9] = test system: intact dogs; test: Repeated BOLD CMR, coronary dynamic parameters from mono-exponential model (Example 2); assay type: in vivo; settings: global myocardium
Experimental: (§3) BOLD images were acquired at different time points before and after regadenoson administration to sample the rest and stress images, respectively. After bolus regadenoson injection, multiple stress images were acquired to sample the coronary dynamics curve for 30 minutes. All stress images were registered to the rest images with a non-rigid motion correction algorithm (Avants B B, Tustison N J, Song G, Cook P A, Klein A, Gee J C. A reproducible evaluation of ANTs similarity metric performance in brain image registration. Neuroimage 2011; 54:2033-44) to correct for motion-induced miss match between acquisitions. Motion corrected images were used to extract the CDPs throughout the stress period using a mono-exponential model (Felmlee M A, Morris M E, Mager D E. Mechanism-based pharmacodynamic modeling. Methods in molecular biology 2012; 929:583-600) (T2(t)=T2o+ΔT2max exp(−t/τ)). A flow chart of the experimental setup is depicted in FIG. 4.
(§4) In healthy volunteers and intact dogs, global CDPs were extracted from the myocardium. Maximum BOLD response was derived with CDPs (MBRCDP=ΔT2max/T2o×100%) and compared with conventional myocardial BOLD response (MBRcon), which was derived as the T2 elevation from rest to 2 minutes after regadenoson administration (MBRconv=[(StressT2^2min/Rest T2)−1)×100%]. In the animals with coronary impairment, CDPs were measured in segmental and pixel-wise manner. Pixel-wised CDPs between remote and affected territories were segmented using SVMs to investigate the capability of separating diseased myocardium from the remote regions. In addition, CDPs were derived from subsets of BOLD images with different starting time points to probe the optimized setup of detecting affected territories. Details of each step are described in the following sections.
(§5) Experimental Subjects and animal preparation: We studied healthy human volunteers (n=6), intact dogs (n=7) and dogs with chronic infarctions (n=1). During imaging studies in animals, all animals were mechanically ventilated and anesthetized with propofol. In the dog with chronic infarction, the animal underwent an open chest ischemia reperfusion protocol (3 hours of ischemia followed by reperfusion), followed by 8-week recovery prior to imaging.
(§6) Image acquisition: Human studies were performed on a 3.0 T clinical MM system (MAGNETOM Verio®, Siemens Healthcare, Erlangen, Germany) and the animals were studied on a 3T whole body PET MR system (Biograph mMR, Siemens Healthcare, Erlangen, Germany). In all subjects, BOLD images were acquired with a commercially available 2D T2 mapping sequence {Giri, 2009 #820}. In all studies, after localization and shimming, rest BOLD images were acquired under baseline followed by a bolus regadenoson injection. Post regadenoson administration, BOLD CMR images were acquired between 2 to 30 minutes after regadenoson injection with an interval of 1-5 minutes depending on the physiological and imaging condition. In the animal with chronic infarction, simultaneous ^13N ammonia PET images were acquired at 2 minutes post regadenoson administration to validate the hyperemic response from regadenoson. In addition, LGE images were acquired to identify the infarcted territories after all BOLD acquisitions were completed. Block representations of imaging protocols are illustrated in FIG. 5. Imaging parameters are listed as the following: T2 mapping: TR/TE=2.9 ms/1.1 ms, iPAT=2, partial Fourier=3/4, FA=35°, BW=1184 Hz/pixel, 86 lines per heartbeat (simulated rate […]), trigger pulse=4, FOV=288×360 mm^2, matrix size=154×192, and voxel size=2.5×1.7×6.0 mm^3, T2 preparation (as TEs)=0, 24, 55 ms.
(§7) Image Processing: The series of BOLD images acquired post regadenoson administration were aligned using the advanced normalization tools (ANTS software). Rest images were used as the reference for registration. […]

[10] = test system: healthy human volunteers; test: as above; assay type: in vivo; settings: global myocardium
Experimental: as §3, §4, §5, §6, §7

[11] = test system: dog with chronic infarction; test: Repeated BOLD CMR, coronary dynamic parameters in remote and affected myocardium (Example 2); assay type: in vivo
Experimental: as §3, §4, §5
Image acquisition: Human studies were performed on a 3.0 T clinical MM system (MAGNETOM Verio®, Siemens Healthcare, Erlangen, Germany) and the animals were studied on a 3T whole body PET MR system (Biograph mMR, Siemens Healthcare, Erlangen, Germany). In all subjects, BOLD images were acquired with a commercially available 2D T2 mapping sequence {Giri, 2009 #820}. In all studies, after localization and shimming, rest BOLD images were acquired under baseline followed by a bolus regadenoson injection. […]

[12] = 10-min post regadenoson administration, 2.5 μg/kg
[13] = affected (infarcted) myocardium

Question: Which terminal half-life [1] does the source give for `CCNC(=O)[C@H]1O[C@@H](n2cnc3c(N)nc(C#CC[C@H]4CC[C@H](C(=O)OC)CC4)nc32)[C@H](O)[C@@H]1O` [apadenoson] here?
Answer: Its terminal half-life is 5 min.

Question: With `Nc1nc(N/N=C/C2CCCCC2)nc2c1ncn2[C@@H]1O[C@H](CO)[C@@H](O)[C@H]1O` [binodenoson] as the compound, how does the terminal half-life [1] read?
Answer: Its terminal half-life is 10 to 120 min.

Question: For `OCCN(CCO)c1nc(N2CCCCC2)c2nc(N(CCO)CCO)nc(N3CCCCC3)c2n1` [dipyridamole], which terminal half-life ([1]; units printed within the range) is on record?
Answer: Its terminal half-life is 40 to 600 min.

Question: With `CNC(=O)c1cnn(-c2nc(N)c3ncn([C@@H]4O[C@H](CO)[C@@H](O)[C@H]4O)c3n2)c1` [regadenoson] as the compound, how does the “MPRaffected (PET)” value ([2]; Affected region) read?
Answer: The value was 1.9±0.7.

Question: And the “MPRremote (PET)” value ([2]; Remote region)?
Answer: The value was 3.7±0.6.

Question: And the “MBRCRM (ΔT2max/T2o×100%)” value [3]?
Answer: Its value is 27±16%.

Question: What about the “MBRcon ((T2 2min−Rest T2)/Rest T2×100%)” value ([3]; 2 min p.r.a) of the same compound?
Answer: The value was 12±6%.

Question: What about the “ΔT2max (maximal T2 change from rest)” value ([3]; CRM fit) of the same compound?
Answer: Its value is 14.7 ± 5.8 ms.

Question: What about the “τ (time constant of coronary relaxation)” value ([3]; CRM fit) of the same compound?
Answer: The value was 35.5 ± 26.8 min.

Question: And the MBRCRM ([4]; Affected region)?
Answer: The MBRCRM was 1±10%.

Question: And the MBRcon ([4]; Affected region)?
Answer: The MBRcon was 5±7%.

Question: And the MBRCRM ([4]; Remote region)?
Answer: Its MBRCRM is 27±6%.

Question: What about the MBRcon ([4]; Remote region) of the same compound?
Answer: Its MBRcon is 15±5%.

Question: What about the “myocardial blood flow relative to rest” value ([5]; 10-15 minutes post regadenoson infusion) of the same compound?
Answer: The value was “above 2 fold”.

Question: What about the “myocardial blood flow (MBF)” value [5, 12] of the same compound?
Answer: The value was 1.8 ± 0.9 mL/min/g.

Question: What about the “myocardial perfusion reserve (MPR)” value ([6]; infarcted territories) of the same compound?
Answer: The value was 1.9.

Question: And the “myocardial perfusion reserve (MPR)” value ([6]; remote myocardium)?
Answer: The value was 3.7.

Question: And the “PET myocardial perfusion reserve (MPR)” value [7]?
Answer: Its value is 3.0±0.6.

Question: And the “Myocardial T2” value [8, 12]?
Answer: Its value is 40.4 ± 1.7 ms.

Question: What about the “T2 elevation relative to rest” value ([8]; 10 min post regadenoson administration) of the same compound?
Answer: The value was 9%.

Question: And the “MBRCDP (ΔT2max/T2o×100%)” value [9]?
Answer: Its value is 25.8%.

Question: And the “MBRcon (T2 elevation from rest to 2 minutes after regadenoson)” value [9]?
Answer: Its value is 10.1%.

Question: What about the “ΔT2max (maximum BOLD stimulation amplitude)” value [9] of the same compound?
Answer: The value was 8.6 ms.

Question: And the “τ (coronary relaxation time constant)” value [9]?
Answer: Its value is 38.5 min.

Question: And the “MBRCDP (ΔT2max/T2o×100%)” value [10]?
Answer: Its value is 26.5%.

Question: And the “MBRcon (T2 elevation from rest to 2 minutes after regadenoson)” value [10]?
Answer: The value was 12.0%.

Question: What about the “ΔT2max (maximum BOLD stimulation amplitude)” value [10] of the same compound?
Answer: The value was 14.7 ms.

Question: What about the “τ (coronary relaxation time constant)” value [10] of the same compound?
Answer: The value was 35.6 min.

Question: What about the “coronary relaxation time constant (τ)” value ([11]; Remote myocardium) of the same compound?
Answer: The value was 29.6 min.

Question: What about the “maximum T2 response (ΔT2max)” value ([11]; Remote myocardium) of the same compound?
Answer: Its value is 5.4 ms.

Question: What about the “coronary relaxation time constant (τ)” value [11, 13] of the same compound?
Answer: Its value is 54.09 min.

Question: And the “maximum T2 response (ΔT2max)” value [11, 13]?
Answer: Its value is 1.6 ms.

Question: And the terminal half-life [1]?
Answer: The terminal half-life was 33 to 108 min.

Question: What about the “second phase of pharmacological half-life” value ([1]; in vivo) of the same compound?
Answer: The value was “approximately 30 minutes”.
